Reference: ChEMBL document CHEMBL1201862, “PubChem BioAssay data set” (2004)
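Protocol summary: plate cells (96-well), add compound at 5 concentrations, incubate 48 h, interpolate endpoints linearly. Abbreviation: GI50, concentration required for 50% inhibition of growth.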 The source made the active and inactive calls. Rule as the data show it: active = GI50 up to about 1.1 µM and inactive = higher.

Assays:
Assay in all cases: NCI-60 cell line screen, 48 h
[1] = test system: MOLT-4
[2] = test system: SK-OV-3
[3] = test system: MDA-N
[4] = test system: HOP-62
[5] = test system: SNB-19
[6] = test system: OVCAR-5
[7] = test system: M14
[8] = test system: COLO 205
[9] = test system: SK-MEL-2
[10] = test system: A549
[11] = test system: UACC-257
[12] = test system: OVCAR-4
[13] = test system: Hs-578T
[14] = test system: A498
[15] = test system: T47D
[16] = test system: SR
[17] = test system: 786-0
[18] = test system: SN12C
[19] = test system: UACC-62
[20] = test system: LOX IMVI
[21] = test system: HCC 2998
[22] = test system: PC-3
[23] = test system: RPMI-8226
[24] = test system: Malme-3M
[25] = test system: DU-145
[26] = test system: SK-MEL-28
[27] = test system: HCT-116
[28] = test system: EKVX
[29] = test system: MCF7
[30] = test system: SK-MEL-5
[31] = test system: KM12
[32] = test system: HCT-15
[33] = test system: SF-295
[34] = test system: SF-539
[35] = test system: IGROV-1
[36] = test system: SF-268
[37] = test system: MDA-MB-435
[38] = test system: OVCAR-3
[39] = test system: CCRF-CEM
[40] = test system: NCI-H226
[41] = test system: SNB-75
[42] = test system: K562
[43] = test system: ACHN
[44] = test system: NCI-H460
[45] = test system: HL-60
[46] = test system: TK-10
[47] = test system: MDA-MB-231
[48] = test system: NCI-H23
[49] = test system: SW-620
[50] = test system: NCI/ADR-RES
[51] = test system: RXF 393
[52] = test system: CAKI-1
[53] = test system: OVCAR-8
[54] = test system: NCI-H522
[55] = test system: HT-29
[56] = test system: UO-31
[57] = test system: U-251
[58] = test system: HOP-92

CCOC(=O)C(CC#Cc1ccc(C#CCC(NC(C)=O)C(=O)OCC)cc1)NC(C)=O (configuration not stated)
GI50 [1]: > 100 µM (inactive) | GI50 [2]: > 100 µM (inactive) | GI50 [3]: > 100 µM (inactive) | GI50 [4]: > 100 µM (inactive) | GI50 [5]: > 100 µM (inactive) | GI50 [6]: > 100 µM (inactive) | GI50 [7]: > 100 µM (inactive) | GI50 [8]: > 100 µM (inactive) | GI50 [9]: > 100 µM (inactive) | GI50 [10]: > 100 µM (inactive) | GI50 [11]: > 100 µM (inactive) | GI50 [12]: > 100 µM (inactive) | GI50 [13]: > 100 µM (inactive) | GI50 [14]: > 100 µM (inactive) | GI50 [15]: > 100 µM (inactive) | GI50 [16]: > 100 µM (inactive) | GI50 [17]: > 100 µM (inactive) | GI50 [18]: > 100 µM (inactive) | GI50 [19]: > 100 µM (inactive) | GI50 [20]: > 100 µM (inactive) | GI50 [21]: > 100 µM (inactive) | GI50 [22]: > 100 µM (inactive) | GI50 [23]: > 100 µM (inactive) | GI50 [24]: > 100 µM (inactive) | GI50 [25]: > 100 µM (inactive) | GI50 [26]: > 100 µM (inactive) | GI50 [27]: > 100 µM (inactive) | GI50 [28]: > 100 µM (inactive) | GI50 [29]: > 100 µM (inactive) | GI50 [30]: > 100 µM (inactive) | GI50 [31]: > 100 µM (inactive) | GI50 [32]: > 100 µM | GI50 [33]: > 100 µM (inactive) | GI50 [34]: > 100 µM (inactive) | GI50 [35]: > 100 µM (inactive) | GI50 [36]: > 100 µM (inactive) | GI50 [37]: > 100 µM (inactive) | GI50 [38]: > 100 µM (inactive) | GI50 [39]: > 100 µM (inactive) | GI50 [40]: > 100 µM (inactive) | GI50 [41]: > 100 µM (inactive) | GI50 [42]: > 100 µM (inactive) | GI50 [43]: > 100 µM (inactive) | GI50 [44]: > 100 µM (inactive) | GI50 [45]: > 100 µM (inactive) | GI50 [46]: > 100 µM (inactive) | GI50 [47]: > 100 µM (inactive) | GI50 [48]: > 100 µM (inactive) | GI50 [49]: > 100 µM (inactive) | GI50 [50]: > 100 µM (inactive) | GI50 [51]: > 100 µM (inactive) | GI50 [52]: > 100 µM (inactive) | GI50 [53]: > 100 µM (inactive) | GI50 [54]: > 100 µM (inactive) | GI50 [55]: > 100 µM (inactive) | GI50 [56]: > 100 µM (inactive)

CC(=O)Nc1ccc(C(=O)NN2C(=O)CSC2c2ccc([N+](=O)[O-])cc2)cc1 (configuration not stated)
GI50 [1]: > 100 µM (inactive) | GI50 [2]: > 100 µM (inactive) | GI50 [3]: > 100 µM (inactive) | GI50 [4]: > 100 µM (inactive) | GI50 [5]: > 100 µM (inactive) | GI50 [6]: > 100 µM (inactive) | GI50 [7]: > 100 µM (inactive) | GI50 [8]: > 100 µM (inactive) | GI50 [9]: > 100 µM (inactive) | GI50 [10]: > 100 µM (inactive) | GI50 [11]: > 100 µM (inactive) | GI50 [12]: > 100 µM (inactive) | GI50 [13]: > 100 µM (inactive) | GI50 [14]: > 100 µM (inactive) | GI50 [15]: > 100 µM (inactive) | GI50 [17]: > 100 µM (inactive) | GI50 [18]: > 100 µM (inactive) | GI50 [19]: > 100 µM (inactive) | GI50 [21]: > 100 µM (inactive) | GI50 [57]: > 100 µM (inactive) | GI50 [23]: > 100 µM (inactive) | GI50 [25]: > 100 µM (inactive) | GI50 [26]: > 100 µM (inactive) | GI50 [27]: > 100 µM (inactive) | GI50 [28]: > 100 µM (inactive) | GI50 [29]: > 100 µM (inactive) | GI50 [30]: > 100 µM (inactive) | GI50 [31]: > 100 µM (inactive) | GI50 [32]: > 100 µM | GI50 [33]: > 100 µM (inactive) | GI50 [34]: > 100 µM (inactive) | GI50 [35]: > 100 µM (inactive) | GI50 [36]: 79.8 µM (inactive) | GI50 [37]: > 100 µM (inactive) | GI50 [38]: > 100 µM (inactive) | GI50 [58]: > 100 µM (inactive) | GI50 [39]: > 100 µM (inactive) | GI50 [40]: > 100 µM (inactive) | GI50 [41]: > 100 µM (inactive) | GI50 [42]: > 100 µM (inactive) | GI50 [43]: > 100 µM (inactive) | GI50 [44]: > 100 µM (inactive) | GI50 [46]: > 100 µM (inactive) | GI50 [47]: 75.9 µM (inactive) | GI50 [48]: > 100 µM (inactive) | GI50 [49]: > 100 µM (inactive) | GI50 [50]: > 100 µM (inactive) | GI50 [51]: > 100 µM (inactive) | GI50 [53]: > 100 µM (inactive) | GI50 [55]: > 100 µM (inactive) | GI50 [56]: > 100 µM (inactive)
